Assay results taken from patent US20210346398A1, “COMBINATIONS WITH A C-19 STEROID FOR TREATING CANCERS” (priority 2018, published 2021).
Where “and” joins values, the source holds several entries; their conditions need not be identical. Equal entries are not always repeated.

Columns and labels:
MDAMB453 = assay: WST-1 proliferation assay of MDAMB453 cells; format: cell-based, human; conditions: 4 days; for Single drug: absorbance at 450 nm as % of solvent control: OHT 10 or 20 μM, EN 5 μM, ETM 25 nM, FUL 1.0 μM, EXE 0.1 μM, Pab 50 nM, Doc 1.0 nM; for Combi: absorbance at 450 nm as % of solvent control, agent in combination with 4-OHT: agent at the single drug concentration plus 4-OHT; for SE1 (synergistic effect, A anti-cancer compound alone / A combination): agent plus 4-OHT versus agent alone
LNCaP cells = assay: WST-1 proliferation assay of LNCaP cells; conditions: for absorbance at 450 nm as % of solvent control, single compound: EN 10 μM, ABI 10 μM, 4-OHT concentration not stated; for Combi: absorbance at 450 nm as % of solvent control, agent in combination with 4-OHT: EN 10 μM or ABI 10 μM plus 4-OHT
T-47D cells = assay: WST-1 proliferation assay of T-47D cells; format: cell-based, human; conditions: for Single drug: absorbance at 450 nm as % of solvent control / Combi: absorbance at 450 nm as % of solvent control, agent in combination with 4-OHT / SE1 (synergistic effect, A anti-cancer compound alone / A combination): 4 days; for Single drug: absorbance at 450 nm as % of solvent control: OHT 10 or 20 μM, EN 10 μM, ETM 25 nM, FUL 1.0 μM, EXE 0.1 μM, Pab 50 nM, Doc 1.0 nM; for Combi: absorbance at 450 nm as % of solvent control, agent in combination with 4-OHT: agent at the single drug concentration plus 4-OHT; for SE1 (synergistic effect, A anti-cancer compound alone / A combination): agent plus 4-OHT versus agent alone; for growth inhibition by the combination with 4-OHT compared to the individual substances alone: FIG. 2, 7 days
Description: The human breast cancer cell line T-47 D (ACC 739) was obtained from DSMZ as frozen cell pellet (Deutsche Sammlung von Mikroorganismen und Zellkulturen). Originally, these cells T-47D cell line was isolated by Keydar et al. (1979) from a pleural effusion obtained from a patient with an infiltrating ductal carcinoma of the breast T-47D is expressing the ER, PR and AR but lacking HER2/neu overexpression. Thus, T-47D may represent a cell line representative for the most prevalent breast cancer subtype.
T-47D were grown routinely in RPMI medium containing 10% fetal calf serum (FCS) and antibiotics in a humidified incubator at 36.5° C./90% humidity and 5% CO2. Cells were maintained in cell culture bottles for less than 20 passages before the individual experiments were conducted; cell suspensions were cultured 96 well plates and exposed at various concentrations of the individual agents; incubation time varied as indicated in the respective figures. WST-1 assay was used to monitor proliferation at 450 nm wavelength.
Growth was as compared to control using WST-1 assay (monitoring absorption at 450 nm wavelength as indicator for cell viability compared to growth control).
(§1) T-47D cells were grown routinely in RPMI medium containing 10% fetal calf serum (FCS) and antibiotics in a humidified incubator at 36.5° C./90% humidity and 5% CO2. […] WST-1 assay was used to monitor proliferation at 450 nm wavelength.

VCaP cells = assay: WST-1 proliferation assay of VCaP cells; conditions: for absorbance at 450 nm as % of solvent control, single compound: EN 10 μM, ABI 10 μM, 4-OHT concentration not stated; for Combi: absorbance at 450 nm as % of solvent control, agent in combination with 4-OHT: EN 10 μM or ABI 10 μM plus 4-OHT
ZR-75-1 = assay: WST-1 proliferation assay of ZR-75-1 cells; format: cell-based, human; conditions: 4 days; for Single drug: absorbance at 450 nm as % of solvent control: OHT 10 or 20 μM, EN 10 μM, ETM 25 nM, FUL 1.0 μM, EXE 0.1 μM, Pab 50 nM, Doc 1.0 nM; for Combi: absorbance at 450 nm as % of solvent control, agent in combination with 4-OHT: agent at the single drug concentration plus 4-OHT; for SE1 (synergistic effect, A anti-cancer compound alone / A combination): agent plus 4-OHT versus agent alone
ZR-75-1N cells = assay: WST-1 proliferation assay of ZR-75-1N cells; format: cell-based, human; conditions: FIG. 3B, 4-OHT 20 μM plus Docetaxel 1, 2, 4, 8 nM, 5 days, average of 3 experiments
Description: as §1
Further the human breast cancer cell line ZR-75-1N was cultured as described above and subjected to 4-OHT at a concentration of 20 μM and Docextaxel (Doc) at various concentrations (1, 2, 4, and 8 nM)) as single drugs or in combination for 5 days.

[1] = FIG. 4A, 4-OHT 10 μM, Bicalutamide 5 or 10 μM, Enzalutamide 5 or 10 μM, day 5

Compound | absorbance at 450 nm as % of solvent control, single compound (LNCaP cells) | Single drug: absorbance at 450 nm as % of solvent control (T-47D cells) | absorbance at 450 nm as % of solvent control, single compound (VCaP cells) | Single drug: absorbance at 450 nm as % of solvent control (MDAMB453) | Combi: absorbance at 450 nm as % of solvent control, agent in combination with 4-OHT (MDAMB453) | SE1 (synergistic effect, A anti-cancer compound alone / A combination) (MDAMB453) | Combi: absorbance at 450 nm as % of solvent control, agent in combination with 4-OHT (T-47D cells) | SE1 (synergistic effect, A anti-cancer compound alone / A combination) (T-47D cells) | Single drug: absorbance at 450 nm as % of solvent control (ZR-75-1) | Combi: absorbance at 450 nm as % of solvent control, agent in combination with 4-OHT (ZR-75-1) | SE1 (synergistic effect, A anti-cancer compound alone / A combination) (ZR-75-1) | also measured
C[C@]12CC[C@H]3[C@@H](CCC4=C(O)C(=O)CC[C@@]43C)[C@@H]1CC[C@@H]2O [4-OHT, 4-hydroxytestosterone] | 78 % of solvent control | 50 % of solvent control | 33 % of solvent control | – | – | – | – | – | – | – | – | Single drug: absorbance at 450 nm as % of solvent control (MDAMB453; listed as OHT): 55 % of solvent control and 40 % of solvent control; Single drug: absorbance at 450 nm as % of solvent control (MDAMB453; listed as OHT20): 76 % of solvent control; effect on cell growth as single compound (LNCaP cells; [1]): only a slight effect; effect on cell growth as single compound (LNCaP cells; FIG. 5, 4-OHT 10 μM, Abiraterone 10 μM, day 5): only a slight effect; effect on cell growth as single compound (VCaP cells; FIG. 4B): very sensitive; Single drug: absorbance at 450 nm as % of solvent control (ZR-75-1; listed as OH20): 71 % of solvent control
CNC(=O)c1ccc(N2C(=S)N(c3ccc(C#N)c(C(F)(F)F)c3)C(=O)C2(C)C)cc1F [Enzalutamide] | 84 % of solvent control | 62 % of solvent control | 32 % of solvent control | 66 % of solvent control | 57 % of solvent control | 1.2 | 28 % of solvent control | 2.2 | 71 % of solvent control | 55 % of solvent control | 1.3 | Combi: absorbance at 450 nm as % of solvent control, agent in combination with 4-OHT (LNCaP cells): 58 % of solvent control; effect on cell growth of the combination with 4-OHT (LNCaP cells; FIG. 4A, 4-OHT 10 μM plus Bicalutamide 10 μM or Enzalutamide 10 μM, day 5): growth inhibition with a significant synergistic effect; effect on cell growth as single compound (LNCaP cells; [1]): not affected; Combi: absorbance at 450 nm as % of solvent control, agent in combination with 4-OHT (VCaP cells): 30 % of solvent control; effect on cell growth as single compound (VCaP cells; FIG. 4B): very sensitive; effect on cell growth of the combination with 4-OHT (VCaP cells; FIG. 4B): synergistic effect
C[C@]12CC[C@@H]3c4ccc(O)cc4C[C@@H](CCCCCCCCC[S+]([O-])CCCC(F)(F)C(F)(F)F)[C@H]3[C@@H]1CC[C@@H]2O (stereo partly shown) [Fulvestrant] | – | 38 % of solvent control | – | 80 % of solvent control | 27 % of solvent control | – | 22 % of solvent control | – | 90 % of solvent control | 43 % of solvent control | – | growth inhibition by the combination with 4-OHT compared to the individual substances alone (T-47D cells): significant growth inhibition
CC/C(=C(\c1ccc(O)cc1)c1ccc(OCCNC)cc1)c1ccccc1 [Endoxifen] | – | 54 % of solvent control | – | 113 % of solvent control | 39 % of solvent control | 1.2 | 35 % of solvent control | 1.5 | 84 % of solvent control | 49 % of solvent control | 1.7 | –
CC(=O)c1c(C)c2cnc(Nc3ccc(N4CCNCC4)cn3)nc2n(C2CCCC2)c1=O [Palbociclib] | – | 80 % of solvent control | – | 112 % of solvent control | 120 % of solvent control | 0.9 | 33 % of solvent control | 2.4 | 91 % of solvent control | 71 % of solvent control | 1.3 | –
C=C1C[C@@H]2[C@H](CC[C@]3(C)C(=O)CC[C@@H]23)[C@@]2(C)C=CC(=O)C=C12 [Exemestane] | – | 70 % of solvent control | – | 118 % of solvent control | 33 % of solvent control | – | 47 % of solvent control | – | 81 % of solvent control | 57 % of solvent control | – | growth inhibition by the combination with 4-OHT compared to the individual substances alone (T-47D cells): significant growth inhibition
C[C@]12CC[C@H](O)CC1=CC[C@@H]1[C@@H]2CC[C@]2(C)C(c3cccnc3)=CC[C@@H]12 [Abiraterone] | 96 % of solvent control | – | 104 % of solvent control | – | – | – | – | – | – | – | – | Combi: absorbance at 450 nm as % of solvent control, agent in combination with 4-OHT (LNCaP cells): 90.57 % of solvent control; Combi: absorbance at 450 nm as % of solvent control, agent in combination with 4-OHT (VCaP cells): 28.11 % of solvent control
CC(=O)O[C@@]12CO[C@@H]1C[C@H](O)[C@@]1(C)C(=O)[C@H](O)C3=C(C)[C@@H](OC(=O)[C@H](O)[C@@H](NC(=O)OC(C)(C)C)c4ccccc4)C[C@@](O)([C@@H](OC(=O)c4ccccc4)[C@H]21)C3(C)C [Docetaxel] | – | 31 % of solvent control | – | 103 % of solvent control | 89 % of solvent control | – | 20 % of solvent control | – | 72 % of solvent control | 43 % of solvent control | – | effect on proliferation of the combination with 4-OHT (ZR-75-1N cells): clear effect of the combination is seen at the lowest dose; effect on proliferation of the combination with 4-OHT compared to the single drugs (T-47D cells; FIG. 3A, Docetaxel 1, 2, 4, 8 nM, 5 days): synergistic effect
